The values below come from patent publication US11753370B2, “Methods of making deuterium-enriched N-acetylcysteine amide (d-NACA) and (2R, 2R′)-3,3′-disulfanediyl bis(2-acetamidopropanamide) (diNACA) and using d-NACA and diNACA to treat diseases involving oxidative stress” (Nacuity Pharmaceuticals, Inc., priority 2017, dated 2023).

A short description of the data set: Plasma half-life. The class given is in vivo. The text has this: Metabolism. An advantage of diNACA over N-acetylsysteine amide (NACA) is the reduction in metabolism rate compared to NACA. DiNACA has a longer plasma half-life than NACA. The major metabolites of diNACA are NACA and N-acetylcysteine (NAC) afforded by cleavage of the sulfur bond of diNACA to yield NACA and NAC. Dosing the patient with diNACA affords high greater bioavailability in tissues like the retina and aqueous humore compared to dosing with NACA, presumably due the higher lipophilicity of diNACA compared to NACA and the resulting in vivo cleavage to two NACA-like molecules, thereby effectively increasing the half-life of NACA in the body.
Metabolism. Deuterium-inhibition of NACA metabolism. An advantage of NACA-d3 is the reduction in metabolism rate compared to the non-deuterated NACA. Non-deuterated NACA has a plasma half-life of approximately 2 hours in fasting subjects and approximately 6 hours in fed subjects. The major metabolite of NACA is N-acetylcysteine (NAC) afforded by deamidation of the primary amide functional group of NACA by tissue (e.g., plasma or other tissue) amidase. Another metabolite of NACA is cysteine afforded by (a) deamidation of the primary amide functional group of NACA by tissue (e.g., plasma or other tissue) amidase and (b) de-acetylation of the secondary amide functional group of NACA by tissue (e.g., plasma or other tissue) amidase. Replacement of the acetyl methyl group hydrogen atoms with deuterium atoms slows down the action of tissue amidases on both (primary and secondary) amide functional groups of NACA-d3, thereby prolonging its residence time in the body, i.e., increasing the half-life in the body.

Regarding N-acetylcysteine amide [NACA], the plasma half-life entry (fasting subjects) is “approximately 2 hours” and the plasma half-life result (fed subjects) was “approximately 6 hours”. On to `CC(=O)N[C@@H](CSSC[C@H](NC(C)=O)C(N)=O)C(N)=O` [DiNACA, (2R,2R′)-3,3′-disulfanediyl bis(2-acetamidopropanamide)], for which, under “comparison with NACA”, the “plasma half-life compared to NACA” value is “longer”.
